Assay: Toxicity in Balb/c mouse xenografted with human HCT-116 cells assessed as body weight change at 10 mg/kg,ip administrated for 18 days by 3 times per week
Format: organism-based
Settings: in vivo, 432 h, time 18 day

In the case of `CCc1c2c(nc3ccc(OC(=O)N4CCC(N5CCCCC5)CC4)cc13)-c1cc3c(c(=O)n1C2)COC(=O)[C@]3(O)CC` [IRINOTECAN], the Activity is reported as “Toxic”.
